Bridge positions count the residues as written; N and C are the ends. Square brackets hold non-standard residues; d marks the D form. Peptide text beside a SMILES is read from it. Dab = NCC[C@H](N)C(=O)O
Tests used:
Assay type in all cases: cell-based, Escherichia coli
E. coli BW25113 [1] = assay: Membrane permeability assay using N-phenylnaphthalen-1-amine (NPN); details: at […]; 60 min incubation, λex 355 nm, λem 420 nm, relative to 100 µg/mL colistin; n = 3 technical replicates
Procedure: Figure 7 Permeabilization assay of E. coli BW25113 using N-Phenyl-1-naphthylamine as fluorescent probe. The read-out was performed after 60 min of incubation using a plate reader with λex 355 nm and λem 420 nm. The N-phenyl-napthalen-1-amine (NPN) uptake values shown are relative to the uptake signal obtained upon treating the cells with 100 µg/mL colistin as previously reported. Error bars represent the standard deviation based on n = 3 technical replicates. A read-out was also performed after 10 min of incubation (see Supplementary data, Figure S16).
This assay was adapted from a protocol described in literature. Bacteria were inoculated overnight at 37 °C in LB, diluted the next day 50× in LB and grown to OD600 of 0.5. The bacterial suspension was then centrifuged for 10 min at 1000× g at 25 °C. The pellet of bacteria was resuspended in 5 mM HEPES buffer containing 20mM glucose to a final concentration of OD600 of 1.0. […] After 10 and 60 min, the plate was measured using Tecan plate reader with λex 355 nm ±20 nm and λem 420 nm ± 20 nm. The fluorescence values obtained were then transformed into a NPN uptake percentage using the following Equation (2):NPN uptake (%) = (Fobs − F0)/(F100 − F0) × 100%,(2)
Equation (2) consists of an observed value of fluorescence (Fobs), which is corrected for background using the negative control (F0). […]

E. coli BW25113 [2] = assay: microbe, parasite or virus in culture
Procedure: (§1) All peptides were screened for antimicrobial activity against E. coli BW25113, E. coli ATCC25922, and E. coli W3110. A select group of the peptides was further tested against E. coli mcr-1, E. coli EQASmcr-1 (EQAS 2016 412016126), E. coli EQASmcr-2 (EQAS 2016 KP37), E. coli EQASmcr-3 (EQAS 2017 2013-SQ352), K. pneumoniae ATCC13883, P. aeruginosa ATCC27853, and A. baumannii ATCC17978. The antimicrobial assay was performed according to CLSI guidelines. Bacteria were plated out directly from their glycerol stocks on blood agar plates, incubated overnight at 37 °C, and then kept in the fridge. The blood agar plates were only used for 2 weeks and then replaced.
(§2) One colony from a blood agar plates was inoculated in Lysogeny Broth (LB) at 37 °C until a 0.5 optical density at 600 nm (OD600) was reached (compared to the sterility control of LB). The bacterial suspension was diluted in fresh LB to 2.0 × 10^6 CFU/mL. The serial dilutions were prepared in polypropylene microtiter plates: a stock of the test compounds was prepared with a 2x final concentration in LB. Moreover, 100 µL of the stock was added to the wells of the top row of which 50 µL was used for the serial dilution. The bottom row of each plate was used as the positive (50 µL of LB) and negative controls (100 µL of LB) (6 wells each). Furthermore, 50 µL of the 2.0 × 10^6 CFU/mL bacterial stock was added to each well except for the negative controls, adding up to a total volume of 100 µL per well. The plates were sealed with a breathable seal and incubated for 20 h at 37 °C and 600 rpm.
(§3) Two 96-well plates were required per compound. A serial dilution of the compound was performed on two plates from row A–G using with LB as medium. Row H was filled with 25 µL medium. On a separate plate a negative control (8 wells, 100 μL medium) was prepared. For all concentrations of antibiotic a specific stock was prepared. 25 µL medium was added to the 0 µg/mL antibiotic columns (plate I, column 1–3). Of each antibiotic stock 25 µL was added to three columns to obtain triplicates for every condition. Both plates contained 50 µL in each well to which 50 µL bacterial stock was added (see the protocol of the MIC assays) and the plates were sealed. After incubation for 20 h at 37 °C while shaking, the breathable seals were removed and the density of the bacterial suspensions measured at 600 nm (OD600) using a Tecan Spark plate reader. The OD600 values were transformed to a 2D gradient with the negative control as minimum and the positive control (wells G1, G2, and G3) as maximum in excel. The FICi was calculated using Equation (1) with a FICi ≤ 0.5 indicating synergy. FICi = (MSCa/MICa) + (MSCb/MICb),(1)
(§4) Calculation of the FICi: MSCa = concentration of the […] in combination with the antibiotic that results in the lowest FICi. MICa = MIC of the antibiotic without synergist (row G). MSCb = concentration of the synergist in combination with the antibiotic that results in the lowest FICi. MICb = MIC of the synergist itself (Column 1–3, plate I).

E. coli BW25113 [3] = test system: E. coli BW25113
E. coli BW25113 [4] = assay: Checkerboard assay with erythromycin
E. coli BW25113 [5] = assay: microbe, parasite or virus in culture; remark: listed apart in the source
Procedure: as §1, §2, §3, §4

How did the “OM permeabilization (NPN uptake)” value (E. coli BW25113 [1]) turn out when `CC(C)C[C@@H]1NC(=O)[C@@H](Cc2ccccc2)NC(=O)[C@H](CCN)NC(=O)[C@@H](NC(=O)[C@H](CCN)NC(=O)[C@@H](N)[C@@H](C)O)CCNC(=O)[C@H]([C@@H](C)O)NC(=O)[C@H](CCN)NC(=O)[C@H](CCN)NC1=O` [PMBN, polymyxin B nonapeptide, reference compound] (H-T[Dab][Dab][Dab][dF]L[Dab][Dab]T; lactam 3-C (inferred); N-terminus assumed) was run?
Its value is “ca. 80%”.

And the MICpeptide (E. coli BW25113 [2]; synergist alone, E. coli BW25113, from checkerboard with vancomycin)?
Its MICpeptide is > 200 µg/mL.

What about the MSCpeptide (E. coli BW25113 [2]; synergist concentration in the combination with vancomycin giving the lowest FICi, E. coli BW25113) of the same compound?
Its MSCpeptide is 12.5 µg/mL.

And the MSCvanco (E. coli BW25113 [2]; vancomycin concentration in the combination giving the lowest FICi, E. coli BW25113)?
The MSCvanco was 50 µg/mL.

What about the MSCrif (E. coli BW25113 [3]; rifampicin concentration in the combination giving the lowest FICi, E. coli BW25113) of the same compound?
The MSCrif was 0.25 µg/mL.

And the MICpep (E. coli BW25113 [3]; synergist alone, E. coli BW25113, from checkerboard with rifampicin)?
Its MICpep is > 200 µg/mL.

What about the MSCpep (E. coli BW25113 [3]; synergist concentration in the combination with rifampicin giving the lowest FICi, E. coli BW25113) of the same compound?
Its MSCpep is 12.5 µg/mL.

What about the FICi (E. coli BW25113 [4]; BW25113, 20 h) of the same compound?
The FICi was 0.125.

And the MSCery (E. coli BW25113 [4]; erythromycin concentration in the combination with the synergist giving the lowest FICi, E. coli BW25113)?
Its MSCery is 12.5 µg/mL.

What about the “MIC of the peptide (MICpep)” value (E. coli BW25113 [4]; synergist alone, E. coli BW25113, LB, 20 h 37 °C, from checkerboard with erythromycin) of the same compound?
The value was > 200 µg/mL.

What about the “MSCpeptide, minimum synergistic concentration” value (E. coli BW25113 [4]; synergist concentration in the combination with erythromycin giving the lowest FICi, E. coli BW25113, LB, 20 h 37 °C, OD600) of the same compound?
Its value is 25 µg/mL.

What about the MSCnovo (E. coli BW25113 [5]; novobiocin concentration in the combination giving the lowest FICi, E. coli BW25113) of the same compound?
Its MSCnovo is 6.25 µg/mL.

What about the MICpeptide (E. coli BW25113 [5]; synergist alone, E. coli BW25113, from checkerboard with novobiocin) of the same compound?
Its MICpeptide is > 200 µg/mL.

And the MSCpeptide (E. coli BW25113 [5]; synergist concentration in the combination with novobiocin giving the lowest FICi, E. coli BW25113)?
The MSCpeptide was 12.5 µg/mL.

From paper PMC8037310, “Thrombin-Derived Peptides Potentiate the Activity of Gram-Positive-Specific Antibiotics against Gram-Negative Bacteria” (Molecules, 2021)
